US5534508A, “Cephem compounds and antimicrobial agents” (Katayama Seiyakusyo Co., Ltd., priority 1993, dated 1996)
In brackets after ≈: the same amount, converted by molar mass.

What was measured:
Format in all cases: cell-based
M. morganii IFO 3848 = assay: MIC against standard strains (Table 1), M. morganii IFO 3848; details: Morganella morganii, IFO3848, Muller-Hinton agar, overnight 37° C., read-out: MIC (minimum growth inhibitory concentration)
Description: (§1) The minimum growth inhibitory concentration (MIC, μg/ml) of the compounds for each of the 25 standard laboratory strains (standard strains) shown in Table 1 was determined in accordance with the standard method of the Japan Chemotherapical Society (Chemotherapy, 29, 76-79 (1981) under "Re-revision of the measuring methods of minimum growth inhibitory concentration (MIC)").
(§2) That is, by using each test strain cultured overnight at 37° C. in a Muller-Hinton broth, there was prepared a bacterial solution with a cell density of 1×10^6 CFU/ml in the same broth. The bacterial solution was inoculated into the Muller-Hinton agar media each containing respectively one test agent (i.e., compound) and, after overnight incubation at 37° C., the minimum concentration that inhibited growth of the bacteria was determined and expressed as MIC.
(§3) Staphylococcus aureus 167 and Staphylococcus aureus 195 used in the test were MRSA. CTM (cefotiam) and FMOX (flomoxef) were used as the control agents.

S. aureus 195 = assay: MIC against standard strains (Table 1), S. aureus 195 (MRSA); details: Staphylococcus aureus, Muller-Hinton agar, overnight 37° C., read-out: MIC (minimum growth inhibitory concentration)
Description: as §1, §2, §3

S. aureus Smith = assay: MIC against standard strains (Table 1), S. aureus Smith; details: Staphylococcus aureus, Muller-Hinton agar, overnight 37° C., read-out: MIC (minimum growth inhibitory concentration)
Description: as §1, §2, §3

P. aeruginosa NCTC 10490 = assay: MIC against standard strains (Table 1), P. aeruginosa NCTC 10490; details: Pseudomonas aeruginosa, NCTC10490, Muller-Hinton agar, overnight 37° C., read-out: MIC (minimum growth inhibitory concentration)
Description: as §1, §2, §3

B. subtilis ATCC 6633 = assay: MIC against standard strains (Table 1), B. subtilis ATCC 6633; details: Bacillus subtilis, ATCC6633, Muller-Hinton agar, overnight 37° C., read-out: MIC (minimum growth inhibitory concentration)
Description: as §1, §2, §3

E. coli CSH2(RE45) = assay: MIC against standard strains (Table 1), E. coli CSH2(RE45); details: Escherichia coli, read-out: MIC (minimum growth inhibitory concentration)
Description: as §1, §2, §3

P. vulugaris OX-19 = assay: MIC against standard strains (Table 1), P. vulugaris OX-19; details: Muller-Hinton agar, overnight 37° C., read-out: MIC (minimum growth inhibitory concentration)
Description: as §1, §2, §3

E. cloacae Nek39 = assay: MIC against standard strains (Table 1), E. cloacae Nek39; details: Enterobacter cloacae, Muller-Hinton agar, overnight 37° C., read-out: MIC (minimum growth inhibitory concentration)
Description: as §1, §2, §3

P. mirabilis IFO 3849 = assay: MIC against standard strains (Table 1), P. mirabilis IFO 3849; details: Proteus mirabilis, IFO3849, Muller-Hinton agar, overnight 37° C., read-out: MIC (minimum growth inhibitory concentration)
Description: as §1, §2, §3

S. aureus 209p JC-1 = assay: MIC against standard strains (Table 1), S. aureus 209p JC-1; details: Staphylococcus aureus, Muller-Hinton agar, overnight 37° C., read-out: MIC (minimum growth inhibitory concentration)
Description: as §1, §2, §3

C. freundii ATCC 8090 = assay: MIC against standard strains (Table 1), C. freundii ATCC 8090; details: Citrobacter freundii, ATCC8090, Muller-Hinton agar, overnight 37° C., read-out: MIC (minimum growth inhibitory concentration)
Description: as §1, §2, §3

M. luteus ATCC 9341 = assay: MIC against standard strains (Table 1), M. luteus ATCC 9341; details: Micrococcus luteus, ATCC9341, Muller-Hinton agar, overnight 37° C., read-out: MIC (minimum growth inhibitory concentration)
Description: as §1, §2, §3

S. epidemidis IAM 1296 = assay: MIC against standard strains (Table 1), S. epidemidis IAM 1296; details: Muller-Hinton agar, overnight 37° C., read-out: MIC (minimum growth inhibitory concentration)
Description: as §1, §2, §3

A. faecalis ATCC 3750 = assay: MIC against standard strains (Table 1), A. faecalis ATCC 3750; details: Alcaligenes faecalis, ATCC3750, Muller-Hinton agar, overnight 37° C., read-out: MIC (minimum growth inhibitory concentration)
Description: as §1, §2, §3

P. aeruginosa AKR17 = assay: MIC against standard strains (Table 1), P. aeruginosa AKR17; details: Pseudomonas aeruginosa, Muller-Hinton agar, overnight 37° C., read-out: MIC (minimum growth inhibitory concentration)
Description: as §1, §2, §3

E. cloacae ATCC 13407 = assay: MIC against standard strains (Table 1), E. cloacae ATCC 13407; details: Enterobacter cloacae, ATCC13407, Muller-Hinton agar, overnight 37° C., read-out: MIC (minimum growth inhibitory concentration)
Description: as §1, §2, §3

P. cepacia CN 9113 = assay: MIC against standard strains (Table 1), P. cepacia CN 9113; details: Burkholderia cepacia, CN9113, Muller-Hinton agar, overnight 37° C., read-out: MIC (minimum growth inhibitory concentration)
Description: as §1, §2, §3

S. aureus 167 = assay: MIC against standard strains (Table 1), S. aureus 167 (MRSA); details: Staphylococcus aureus, Muller-Hinton agar, overnight 37° C., read-out: MIC (minimum growth inhibitory concentration)
Description: as §1, §2, §3

K. pneuminiae IFO 3317 = assay: MIC against standard strains (Table 1), K. pneuminiae IFO 3317; details: Muller-Hinton agar, overnight 37° C., read-out: MIC (minimum growth inhibitory concentration)
Description: as §1, §2, §3

A. calcoaceticos T59 = assay: MIC against standard strains (Table 1), A. calcoaceticos T59; details: Muller-Hinton agar, overnight 37° C., read-out: MIC (minimum growth inhibitory concentration)
Description: as §1, §2, §3

S. marcescens IAM 1184 = assay: MIC against standard strains (Table 1), S. marcescens IAM 1184; details: Serratia marcescens, IAM1184, Muller-Hinton agar, overnight 37° C., read-out: MIC (minimum growth inhibitory concentration)
Description: as §1, §2, §3

E. coli CSH2(RK1) = assay: MIC against standard strains (Table 1), E. coli CSH2(RK1); details: Escherichia coli, read-out: MIC (minimum growth inhibitory concentration)
Description: as §1, §2, §3

E. coli JC-2 = assay: MIC against standard strains (Table 1), E. coli JC-2; details: Escherichia coli, JC2, Muller-Hinton agar, overnight 37° C., read-out: MIC (minimum growth inhibitory concentration)
Description: as §1, §2, §3

S. marcescens No. 16-2 = assay: MIC against standard strains (Table 1), S. marcescens No. 16-2; details: Serratia marcescens, NO.162, Muller-Hinton agar, overnight 37° C., read-out: MIC (minimum growth inhibitory concentration)
Description: as §1, §2, §3

K. pneuminiae No. 42 = assay: MIC against standard strains (Table 1), K. pneuminiae No. 42; details: Muller-Hinton agar, overnight 37° C., read-out: MIC (minimum growth inhibitory concentration)
Description: as §1, §2, §3

clinically isolated MRSA = assay: Antibacterial potency against clinically isolated MRSA (47 strains); details: Staphylococcus aureus
Description: A test on the antibacterial potency against clinically isolated MRSA was conducted in the following way.
That is, using 47 strains of clinically isolated MRSA, MIC was determined for each of the test strains in accordance with the standard method of the Japan Chemotherapical Society as in Test Example 1, and the minimum growth inhibitory concentration which inhibited growth of 50% of the strains tested was expressed as MIC50 (μg/ml), and the minimum growth inhibitory concentration which inhibited growth of 90% of the strains tested was expressed as MIC90 (μg/ml).
In this test, FMOX was used as the control agent.

SMILES | MIC (M. morganii IFO 3848) | MIC (S. aureus 195) | MIC (S. aureus Smith) | MIC (P. aeruginosa NCTC 10490) | MIC (B. subtilis ATCC 6633) | MIC (E. coli CSH2(RE45)) | MIC (P. vulugaris OX-19) | MIC (E. cloacae Nek39) | MIC (P. mirabilis IFO 3849) | MIC (S. aureus 209p JC-1) | MIC (C. freundii ATCC 8090) | MIC (M. luteus ATCC 9341) | MIC (S. epidemidis IAM 1296) | MIC (A. faecalis ATCC 3750) | MIC (P. aeruginosa AKR17) | MIC (E. cloacae ATCC 13407) | MIC (P. cepacia CN 9113) | MIC (S. aureus 167) | MIC (K. pneuminiae IFO 3317) | MIC (A. calcoaceticos T59) | further results
CO/N=C(\C(=O)N[C@@H]1C(=O)N2C(C(=O)[O-])=C(/C=C/C[n+]3cccc(-c4csc(N)n4)c3)CS[C@H]12)c1csc(N)n1 [Compound 5, 7β-[2-(2-aminothiazol-4-yl)-2-syn-methoxyiminoacetamido]-3-[(E)-3-[3-(2-aminothiazol-4-yl)pyridinio]-1-propenyl]-3-cephem-4-carboxylate] | 0.025 µg/mL (≈ 0.0418 µM) | 12.5 µg/mL (≈ 20.9 µM) | 0.39 µg/mL (≈ 0.651 µM) | 1.56 µg/mL (≈ 2.61 µM) | 0.39 µg/mL (≈ 0.651 µM) | 0.2 µg/mL (≈ 0.334 µM) | 0.025 µg/mL (≈ 0.0418 µM) | 3.13 µg/mL (≈ 5.23 µM) | 0.1 µg/mL (≈ 0.167 µM) | 0.39 µg/mL (≈ 0.651 µM) | 0.025 µg/mL (≈ 0.0418 µM) | 0.025 µg/mL (≈ 0.0418 µM) | 0.2 µg/mL (≈ 0.334 µM) | 0.78 µg/mL (≈ 1.3 µM) | > 100 µg/mL | 0.2 µg/mL (≈ 0.334 µM) | 50 µg/mL (≈ 83.5 µM) | 100 µg/mL (≈ 167 µM) | 0.025 µg/mL (≈ 0.0418 µM) | 12.5 µg/mL (≈ 20.9 µM) | MIC (S. marcescens IAM 1184): 0.025 µg/mL (≈ 0.0418 µM); MIC (E. coli CSH2(RK1)): 0.05 µg/mL (≈ 0.0835 µM); MIC (E. coli JC-2): 0.025 µg/mL (≈ 0.0418 µM); MIC (S. marcescens No. 16-2): 1.56 µg/mL (≈ 2.61 µM); MIC (K. pneuminiae No. 42): 0.2 µg/mL (≈ 0.334 µM)
CO/N=C(\C(=O)N[C@@H]1C(=O)N2C(C(=O)[O-])=C(/C=C/C[n+]3cccc(NC(N)=O)c3)CS[C@H]12)c1csc(N)n1 [Compound 6, 7β-[2-(2-aminothiazol-4-yl)-2-syn-methoxyiminoacetamido]-3-[(E)-3-(3-ureidopyridinio]-1-propenyl]-3-cephem-4-carboxylate] | 0.025 µg/mL (≈ 0.0448 µM) | 12.5 µg/mL (≈ 22.4 µM) | 0.39 µg/mL (≈ 0.698 µM) | 0.39 µg/mL (≈ 0.698 µM) | 0.2 µg/mL (≈ 0.358 µM) | 0.1 µg/mL (≈ 0.179 µM) | 0.025 µg/mL (≈ 0.0448 µM) | 3.13 µg/mL (≈ 5.6 µM) | 0.025 µg/mL (≈ 0.0448 µM) | 0.39 µg/mL (≈ 0.698 µM) | 0.025 µg/mL (≈ 0.0448 µM) | 0.025 µg/mL (≈ 0.0448 µM) | 0.2 µg/mL (≈ 0.358 µM) | 0.39 µg/mL (≈ 0.698 µM) | > 100 µg/mL | 0.2 µg/mL (≈ 0.358 µM) | 50 µg/mL (≈ 89.5 µM) | 50 µg/mL (≈ 89.5 µM) | 0.025 µg/mL (≈ 0.0448 µM) | 6.25 µg/mL (≈ 11.2 µM) | MIC50 (clinically isolated MRSA; concentration inhibiting growth of 50% of 47 clinically isolated MRSA strains): 13.8 µg/mL (≈ 24.7 µM); MIC90 (clinically isolated MRSA; concentration inhibiting growth of 90% of 47 clinically isolated MRSA strains): 67 µg/mL (≈ 120 µM); MIC (S. marcescens IAM 1184): 0.025 µg/mL (≈ 0.0448 µM); MIC (E. coli CSH2(RK1)): 0.025 µg/mL (≈ 0.0448 µM); MIC (E. coli JC-2): 0.025 µg/mL (≈ 0.0448 µM); MIC (S. marcescens No. 16-2): 0.78 µg/mL (≈ 1.4 µM); MIC (K. pneuminiae No. 42): 0.1 µg/mL (≈ 0.179 µM)
